According to ChEMBL document CHEMBL3045612, “Solvent- and catalyst-free synthesis of bis-adducts of 3-formylchromone as potential antimicrobial agents” (2013):
Values after ≈ are worked out from the molar mass of the structure shown.

Assays:
[1] = tested on: Candida albicans; assay: Antifungal activity against Candida albicans assessed as growth inhibition after 3 to 4 days by disk diffusion assay; format: functional
[2] = tested on: Trichophyton mentagrophytes; assay: Antifungal activity against Trichophyton mentagrophytes assessed as growth inhibition after 3 to 4 days by disk diffusion assay; format: functional
[3] = tested on: Staphylococcus aureus; assay: Antibacterial activity against methicillin-resistant Staphylococcus aureus assessed as growth inhibition after 24 hr by macrodilution method; format: functional
[4] = tested on: Aspergillus fumigatus; assay: Fungicidal activity against Aspergillus fumigatus after 48 hr; format: functional
[5] = tested on: Talaromyces marneffei; assay: Antifungal activity against Talaromyces marneffei assessed as growth inhibition after 3 to 4 days by disk diffusion assay; format: functional
[6] = tested on: Escherichia coli; assay: Bactericidal activity against Escherichia coli ATCC 25922 after 18 to 24 hr; format: functional
[7] = tested on: Staphylococcus aureus; assay: Antibacterial activity against methicillin-resistant Staphylococcus aureus assessed as growth inhibition after 24 hr by disk diffusion assay; format: functional
[8] = tested on: Trichophyton mentagrophytes; assay: Antifungal activity against Trichophyton mentagrophytes assessed as growth inhibition after 48 hr by macrodilution method; format: functional
[9] = tested on: Staphylococcus aureus; assay: Bactericidal activity against methicillin-resistant Staphylococcus aureus after 18 to 24 hr; format: functional
[10] = tested on: Klebsiella pneumoniae; assay: Antibacterial activity against Klebsiella pneumoniae clinical isolate assessed as growth inhibition after 24 hr by macrodilution method; format: functional
[11] = tested on: Klebsiella pneumoniae; assay: Bactericidal activity against Klebsiella pneumoniae clinical isolate after 18 to 24 hr; format: functional
[12] = tested on: Aspergillus fumigatus; assay: Antifungal activity against Aspergillus fumigatus assessed as growth inhibition after 3 to 4 days by disk diffusion assay; format: functional
[13] = tested on: Aspergillus fumigatus; assay: Antifungal activity against Aspergillus fumigatus assessed as growth inhibition after 48 hr by macrodilution method; format: functional
[14] = tested on: Escherichia coli; assay: Antibacterial activity against Escherichia coli ATCC 25922 assessed as growth inhibition after 24 hr by disk diffusion assay; format: functional
[15] = tested on: Streptococcus pyogenes; assay: Antibacterial activity against Streptococcus pyogenes assessed as growth inhibition after 24 hr by disk diffusion assay; format: functional
[16] = tested on: Streptococcus pyogenes; assay: Bactericidal activity against Streptococcus pyogenes after 18 to 24 hr; format: functional
[17] = tested on: Talaromyces marneffei; assay: Fungicidal activity against Talaromyces marneffei after 48 hr; format: functional
[18] = tested on: Candida albicans; assay: Fungicidal activity against Candida albicans after 48 hr; format: functional
[19] = tested on: Pseudomonas aeruginosa; assay: Bactericidal activity against Pseudomonas aeruginosa ATCC 27853 after 18 to 24 hr; format: functional
[20] = tested on: Pseudomonas aeruginosa; assay: Antibacterial activity against Pseudomonas aeruginosa ATCC 27853 assessed as growth inhibition after 24 hr by disk diffusion assay; format: functional
[21] = tested on: Candida albicans; assay: Antifungal activity against Candida albicans assessed as growth inhibition after 48 hr by macrodilution method; format: functional
[22] = tested on: Klebsiella pneumoniae; assay: Antibacterial activity against Klebsiella pneumoniae clinical isolate assessed as growth inhibition after 24 hr by disk diffusion assay; format: functional
[23] = tested on: Escherichia coli; assay: Antibacterial activity against Escherichia coli ATCC 25922 assessed as growth inhibition after 24 hr by macrodilution method; format: functional; settings: ATCC 25922, 24 h
[24] = tested on: Talaromyces marneffei; assay: Antifungal activity against Talaromyces marneffei assessed as growth inhibition after 48 hr by macrodilution method; format: functional
[25] = tested on: Trichophyton mentagrophytes; assay: Fungicidal activity against Trichophyton mentagrophytes after 48 hr; format: functional
[26] = tested on: Streptococcus pyogenes; assay: Antibacterial activity against Streptococcus pyogenes assessed as growth inhibition after 24 hr by macrodilution method; format: functional
[27] = tested on: Pseudomonas aeruginosa; assay: Antibacterial activity against Pseudomonas aeruginosa ATCC 27853 assessed as growth inhibition after 24 hr by macrodilution method; format: functional; settings: ATCC 27853, 24 h
[28] = tested on: Escherichia coli; assay: microbe, parasite or virus in culture; settings: ATCC 25922, 24 h, read-out: DIZ
Description: Antibacterial activity against Escherichia coli ATCC 25922 assessed as growth inhibition at 30 ug after 24 hr by halo zone test

[29] = tested on: Pseudomonas aeruginosa; assay: microbe, parasite or virus in culture; settings: ATCC 27853, 24 h, read-out: DIZ
Description: Antibacterial activity against Pseudomonas aeruginosa ATCC 27853 assessed as growth inhibition at 30 ug after 24 hr by halo zone test

[30] = tested on: Staphylococcus aureus; assay: Antibacterial activity against methicillin-resistant Staphylococcus aureus assessed as growth inhibition at 30 ug after 24 hr by halo zone test; settings: read-out: DIZ
[31] = tested on: Talaromyces marneffei; assay: Antifungal activity against Talaromyces marneffei assessed as growth inhibition after 3 to 4 days by halo zone test; format: functional
[32] = tested on: Trichophyton mentagrophytes; assay: Antifungal activity against Trichophyton mentagrophytes assessed as growth inhibition after 3 to 4 days by halo zone test; format: functional
[33] = tested on: Candida albicans; assay: Antifungal activity against Candida albicans assessed as growth inhibition after 3 to 4 days by halo zone test; format: functional
[34] = tested on: Aspergillus fumigatus; assay: Antifungal activity against Aspergillus fumigatus assessed as growth inhibition after 3 to 4 days by halo zone test; format: functional

Row | SMILES | diameter of the inhibition zone (DIZ) [1] | diameter of the inhibition zone (DIZ) [2] | MIC [3] | MFC [4] | diameter of the inhibition zone (DIZ) [5] | MBC [6] | diameter of the inhibition zone (DIZ) [7] | MIC [8] | MBC [9] | MIC [10] | MBC [11] | diameter of the inhibition zone (DIZ) [12] | MIC [13] | diameter of the inhibition zone (DIZ) [14] | diameter of the inhibition zone (DIZ) [15] | MFC [17] | MFC [18] | MIC [21] | MIC [24] | MFC [25] | other results
1 | Cc1[nH]n(-c2ccccc2)c(=O)c1C(c1coc2ccccc2c1=O)c1c(C)[nH]n(-c2ccccc2)c1=O | 23.9 mm | 18.1 mm | 25 µg/mL (≈ 49.5 µM) | 50 µg/mL (≈ 99.1 µM) | 14.3 mm | 100 µg/mL (≈ 198 µM) | 15.6 mm | 25 µg/mL (≈ 49.5 µM) | 50 µg/mL (≈ 99.1 µM) | 25 µg/mL (≈ 49.5 µM) | 100 µg/mL (≈ 198 µM) | 20.7 mm | 25 µg/mL (≈ 49.5 µM) | 15.5 mm | 16.1 mm | 100 µg/mL (≈ 198 µM) | 50 µg/mL (≈ 99.1 µM) | 25 µg/mL (≈ 49.5 µM) | 25 µg/mL (≈ 49.5 µM) | 50 µg/mL (≈ 99.1 µM) | MBC [16]: 50 µg/mL (≈ 99.1 µM); MBC [19]: 100 µg/mL (≈ 198 µM); diameter of the inhibition zone (DIZ) [20]: 13.1 mm; diameter of the inhibition zone (DIZ) [22]: 14.5 mm; MIC [23]: 25 µg/mL (≈ 49.5 µM); MIC [26]: 25 µg/mL (≈ 49.5 µM); MIC [27]: 25 µg/mL (≈ 49.5 µM)
2 | O=C(O)c1cn(C2CC2)c2cc(N3CCNCC3)c(F)cc2c1=O [CIPROFLOXACIN] |  |  |  |  |  |  |  |  |  |  |  |  |  |  |  |  |  |  |  |  | zone of inhibition at 30 µg/disc [28]: 27 mm; zone of inhibition at 30 µg/disc [29]: 32 mm; zone of inhibition at 30 µg/disc [30]: 22 mm
3 | Cc1cc2oc(=O)c(C(c3c(O)c4cc(C)c(C)cc4oc3=O)c3coc4ccccc4c3=O)c(O)c2cc1C | 27.2 mm | 19.4 mm | 12.5 µg/mL (≈ 23.3 µM) | 25 µg/mL (≈ 46.6 µM) | 14.8 mm | 50 µg/mL (≈ 93.2 µM) | 20.7 mm | 12.5 µg/mL (≈ 23.3 µM) | 25 µg/mL (≈ 46.6 µM) | 12.5 µg/mL (≈ 23.3 µM) | 50 µg/mL (≈ 93.2 µM) | 22.1 mm | 12.5 µg/mL (≈ 23.3 µM) | 20.8 mm | 21.2 mm | 25 µg/mL (≈ 46.6 µM) | 25 µg/mL (≈ 46.6 µM) | 12.5 µg/mL (≈ 23.3 µM) | 12.5 µg/mL (≈ 23.3 µM) | 50 µg/mL (≈ 93.2 µM) | MBC [16]: 25 µg/mL (≈ 46.6 µM); MBC [19]: 25 µg/mL (≈ 46.6 µM); diameter of the inhibition zone (DIZ) [20]: 23.3 mm; diameter of the inhibition zone (DIZ) [22]: 19.3 mm; MIC [23]: 25 µg/mL (≈ 46.6 µM); MIC [26]: 12.5 µg/mL (≈ 23.3 µM); MIC [27]: 12.5 µg/mL (≈ 23.3 µM)
4 | O=c1oc2ccccc2c(O)c1C(c1c(O)c2ccccc2oc1=O)c1coc2ccccc2c1=O | 19.1 mm | 19.3 mm | 25 µg/mL (≈ 52 µM) | 50 µg/mL (≈ 104 µM) | 13.1 mm | 50 µg/mL (≈ 104 µM) | 18.1 mm | 25 µg/mL (≈ 52 µM) | 50 µg/mL (≈ 104 µM) | 12.5 µg/mL (≈ 26 µM) | 50 µg/mL (≈ 104 µM) | 16.7 mm | 25 µg/mL (≈ 52 µM) | 22.1 mm | 21.5 mm | 100 µg/mL (≈ 208 µM) | 100 µg/mL (≈ 208 µM) | 25 µg/mL (≈ 52 µM) | 25 µg/mL (≈ 52 µM) | 50 µg/mL (≈ 104 µM) | MBC [16]: 50 µg/mL (≈ 104 µM); MBC [19]: 50 µg/mL (≈ 104 µM); diameter of the inhibition zone (DIZ) [20]: 26.4 mm; diameter of the inhibition zone (DIZ) [22]: 17.3 mm; MIC [23]: 25 µg/mL (≈ 52 µM); MIC [26]: 25 µg/mL (≈ 52 µM); MIC [27]: 25 µg/mL (≈ 52 µM)
5 | COC1=CC(=O)C[C@@H](C)[C@]12Oc1c(Cl)c(OC)cc(OC)c1C2=O [GRISEOFULVIN] |  |  |  | 12.5 µg/mL (≈ 35.4 µM) |  |  |  | 6.25 µg/mL (≈ 17.7 µM) |  |  |  |  | 12.5 µg/mL (≈ 35.4 µM) |  |  | 25 µg/mL (≈ 70.9 µM) | 25 µg/mL (≈ 70.9 µM) | 6.25 µg/mL (≈ 17.7 µM) | 12.5 µg/mL (≈ 35.4 µM) | 25 µg/mL (≈ 70.9 µM) | diameter of the inhibition zone (DIZ) [31]: 20 mm; diameter of the inhibition zone (DIZ) [32]: 24 mm; diameter of the inhibition zone (DIZ) [33]: 30 mm; diameter of the inhibition zone (DIZ) [34]: 27 mm
6 | Cc1cc(O)c(C(c2c(O)cc(C)oc2=O)c2coc3ccccc3c2=O)c(=O)o1 | 24.1 mm | 17.8 mm | 25 µg/mL (≈ 61.2 µM) | 50 µg/mL (≈ 122 µM) | 14.2 mm | 50 µg/mL (≈ 122 µM) | 18.5 mm | 25 µg/mL (≈ 61.2 µM) | 50 µg/mL (≈ 122 µM) | 25 µg/mL (≈ 61.2 µM) | 50 µg/mL (≈ 122 µM) | 21.3 mm | 12.5 µg/mL (≈ 30.6 µM) | 18.6 mm | 19.1 mm | 50 µg/mL (≈ 122 µM) | 50 µg/mL (≈ 122 µM) | 12.5 µg/mL (≈ 30.6 µM) | 25 µg/mL (≈ 61.2 µM) | 50 µg/mL (≈ 122 µM) | MBC [16]: 50 µg/mL (≈ 122 µM); MBC [19]: 50 µg/mL (≈ 122 µM); diameter of the inhibition zone (DIZ) [20]: 21.2 mm; diameter of the inhibition zone (DIZ) [22]: 17.2 mm; MIC [23]: 25 µg/mL (≈ 61.2 µM); MIC [26]: 25 µg/mL (≈ 61.2 µM); MIC [27]: 12.5 µg/mL (≈ 30.6 µM)
